Data: paper PMC4347883, “Evaluation of a Triple-Helical Peptide with Quenched Fluorophores for Optical Imaging of MMP-2 and MMP-9 Proteolytic Activity” (Molecules, 2014)
“Also recorded” adds a separate entry of the source.

Assays:
[1] = system: MMP-2; assay: MMP-2 inhibition by SB-3CT; assay type: biochemical; conditions: at SB-3CT 72-fold Ki (1 µM)
[2] = system: gelatinase positive HT-1080 human fibrosarcoma cells; assay: Confocal fluorescence microscopy of 5FAM6-THP hydrolysis in HT-1080 cells; assay type: cell-based; conditions: SB-3CT 1 µM pre-incubated 30 min, then 5FAM6-THP 1 µM, 1 h, mean of n = 10 cells
From the text: Two image fields are shown per condition.

[3] = system: MMP-7; conditions: cited from earlier work
[4] = molecular target: T1, human-MMP-9 (Homo sapiens, UniProt P14780); conditions: fTHP comparison; cited from earlier work
T1 construct: purchased Enzo Life Sciences
T1 sequence (P14780 107-707 limits assumed): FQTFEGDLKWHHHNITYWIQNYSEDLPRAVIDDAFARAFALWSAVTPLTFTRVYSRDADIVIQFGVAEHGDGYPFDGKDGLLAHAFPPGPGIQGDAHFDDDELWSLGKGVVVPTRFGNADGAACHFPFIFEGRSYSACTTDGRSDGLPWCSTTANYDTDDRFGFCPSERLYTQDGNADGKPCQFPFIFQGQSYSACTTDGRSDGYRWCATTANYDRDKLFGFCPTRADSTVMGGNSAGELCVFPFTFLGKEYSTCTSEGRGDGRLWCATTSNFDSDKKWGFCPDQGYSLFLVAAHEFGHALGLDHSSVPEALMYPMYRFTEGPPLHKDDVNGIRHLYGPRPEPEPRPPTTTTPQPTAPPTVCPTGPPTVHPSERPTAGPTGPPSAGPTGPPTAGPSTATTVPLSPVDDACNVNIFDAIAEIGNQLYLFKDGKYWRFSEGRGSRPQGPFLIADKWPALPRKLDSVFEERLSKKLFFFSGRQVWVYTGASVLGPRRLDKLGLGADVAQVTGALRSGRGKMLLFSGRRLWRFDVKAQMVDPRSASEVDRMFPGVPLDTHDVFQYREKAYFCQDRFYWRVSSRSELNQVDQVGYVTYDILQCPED
From the text: (§1) Table 1 Enzyme kinetic parameters for gelatinase mediated hydrolysis of 5FAM-THPs. | column: KM (μM); kcat (s^−1); kcat/KM (M^−1 s^−1)

[5] = molecular target: T2, human-MMP-2 (Homo sapiens, UniProt P08253); conditions: fTHP comparison; cited from earlier work
T2 construct: purchased Enzo Life Sciences
T2 sequence (P08253 110-660): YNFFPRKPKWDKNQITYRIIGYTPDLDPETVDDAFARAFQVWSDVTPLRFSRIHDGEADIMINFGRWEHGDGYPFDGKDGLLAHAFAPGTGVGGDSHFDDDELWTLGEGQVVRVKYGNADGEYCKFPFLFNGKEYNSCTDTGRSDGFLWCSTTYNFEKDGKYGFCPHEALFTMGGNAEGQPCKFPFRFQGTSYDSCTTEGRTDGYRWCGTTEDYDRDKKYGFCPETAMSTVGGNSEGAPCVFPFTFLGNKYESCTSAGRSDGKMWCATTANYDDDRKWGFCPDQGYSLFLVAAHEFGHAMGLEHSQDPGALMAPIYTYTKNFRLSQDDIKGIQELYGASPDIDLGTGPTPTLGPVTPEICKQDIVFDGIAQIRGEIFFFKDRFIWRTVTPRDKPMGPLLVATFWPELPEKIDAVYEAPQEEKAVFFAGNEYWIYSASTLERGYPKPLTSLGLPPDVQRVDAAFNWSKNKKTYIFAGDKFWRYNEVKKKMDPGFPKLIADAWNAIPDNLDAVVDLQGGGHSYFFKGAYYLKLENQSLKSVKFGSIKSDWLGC
From the text: as §1

With `O=S(=O)(CC1CS1)c1ccc(Oc2ccccc2)cc1` (stereo not shown) [SB-3CT] the “occupancy of MMP-2 at equilibrium” value [1] was “approximately 99%” and the “reduction of 5FAM6-THP fluorescence by gelatinase inhibitor” value [2] was “greatly attenuated; also recorded: greatly reduced fluorescence levels when 5FAM6-THP was incubated with HT-1080 cells by three-fold; also recorded: low levels of fluorescence observed in SB-3CT treated HT-1080 cells”.
In the case of “GVPLSLTMGC [MMP-7 substrate bearing a heterologous donor and acceptor pair of near infrared dyes on the N- and C- termini]”, the “increase in fluorescence after digestion with MMP-7” value ([3]; after digestion with MMP-7) is listed as about 7 fold and the level of quenching ([3]; near infrared donor/acceptor dye pair on N- and C-termini) is listed as 85%.
For “(GPhP)5GPK(Mca)GPPG~VVGEK(Dnp)GEN(GPhP)5-NH2 [fTHP, fluorogenic THP substrate with 7-methoxycoumarin and 2,4-dinitrophenyl groups conjugated to the ε-amino groups of Lys]”, the Km [4] is listed as 8.1 µM, the kcat [4] is listed as 0.044 s⁻¹ and the kcat/KM [4] is listed as 5,400 M^−1 s^−1. The Km [5] was 4.4 µM, the kcat [5] was 0.061 s⁻¹ and the kcat/KM [5] was 14,002 M^−1 s^−1.
